{"source": "paper PMC6941952", "about": "“A homogeneous bioluminescent immunoassay to probe cellular signaling pathway regulation” (Communications Biology, 2020)", "tested_on": "STAT3 Phospho-Tyr705", "assay": "NanoBiT pSTAT3 cell-based immunoassay in A431 cells", "design": "species or system human", "settings": "for P-STAT3 (% compared to no inhibitor) Average / P-STAT3 (% compared to no inhibitor): IL-6 10 ng/ml; for P-STAT3 (% compared to no inhibitor): replicate", "protocol": "Prior to NanoBiT Cell-Based Immunoassay, 50,000 cells were seeded in 160 µl of complete growth media per well of a 96-well plate and incubated overnight. […] If necessary, the cell culture media were replaced with serum-free media after the cells were stably adherent on the plate and incubated overnight. To treat cells with activators or inhibitors, medium was changed to 30 µl of medium containing inhibitors. If activation of a specific pathway is needed, the cells were stimulated with 10 µl of medium containing activators. To lyse the cells, 10 µl of lysis buffer containing 0.1% digitonin diluted in 1X immunoassay buffer with protease and phosphatase inhibitors was added and the plates were mixed vigorously for 20 min. Then, 50 µl of an antibody mix containing two primary antibodies against the target protein and NanoBiT detecting antibodies (0.3 µl each per well), diluted in 1X immunoassay buffer was added to the lysates. The plates were incubated at 23 °C for 90 min, followed by the addition of 25 µl of Nano-Glo® reagent consisting of Nano-Glo® Luciferase Assay Substrate mixed with 1X immunoassay buffer. Luminescence was measured using a plate-reading luminometer.\nSingle dose or dose response inhibitor treatments were performed prior to activation of the pathways as follows. For IκBα, the cells were treated in 30 µl medium with IKK16 or MG132 for 60 min before the addition of 10 µl of DMEM containing appropriate concentration of TNFα. To measure phosphorylation of AKT or STAT3, the corresponding NanoBiT immunoassays were developed with MCF-7 or A431 cells, respectively, according the same scheme used to develop the IκBα assay using the primary antibodies for AKT and STAT3 described in the reagents section. […] Treatment with LY294002 was performed in 30 µl medium and cells were incubated for 60 min before the addition of 1 µM Insulin. To measure STAT3 phosphorylation, A431 cells were incubated overnight in DMEM medium without serum. […] After addition of the stimulators, the cells were incubated for additional times as follows. IκBα phosphorylation and degradation analyses required both time courses and single time points as described in figures. […] The NanoBiT immunoassay protocol was followed as described above.\nAll 96-well assay plates were read using a GloMax® 96 Microplate Luminometer from Promega. The instrument was set to 0.5 s integration time. In order to obtain net change of signal, the reagent background values (signal from the well containing all reagent except primary antibodies) were subtracted from the sample values. To plot and analyze the data, Microsoft Excel and GraphPad Prism® Software were used. IC50 values were determined by using a nonlinear regression fit to a sigmoidal dose response (variable slope).", "note": "Several values for one entry are separate records, joined by “and”; a condition that tells them apart may be missing. Identical values can stand only once.", "data": [{"compound": "N#CC[C@H](C1CCCC1)n1cc(-c2ncnc3[nH]ccc23)cn1", "note": "[Ruxolitinib]", "values": [{"measurement": "IL-6-induced increase in STAT3 phosphorylation", "setting": "A431 cells, 1 µM 1 h, IL-6 10 ng per ml 30 min", "value": "suppressed"}, {"measurement": "P-STAT3 (% compared to no inhibitor) Average", "setting": "inhibitor 0.0190735 nM", "value": 95.1, "unit": "%"}, {"measurement": "P-STAT3 (% compared to no inhibitor) Average", "setting": "inhibitor 0.038147 nM", "value": 97.5, "unit": "%"}, {"measurement": "P-STAT3 (% compared to no inhibitor) Average", "setting": "inhibitor 0.0762939 nM", "value": 97.0, "unit": "%"}, {"measurement": "P-STAT3 (% compared to no inhibitor) Average", "setting": "inhibitor 0.152588 nM", "value": 107.8, "unit": "%"}, {"measurement": "P-STAT3 (% compared to no inhibitor) Average", "setting": "inhibitor 0.305176 nM", "value": 102.4, "unit": "%"}, {"measurement": "P-STAT3 (% compared to no inhibitor) Average", "setting": "inhibitor 0.610352 nM", "value": 97.6, "unit": "%"}, {"measurement": "P-STAT3 (% compared to no inhibitor) Average", "setting": "inhibitor 1.2207 nM", "value": 97.9, "unit": "%"}, {"measurement": "P-STAT3 (% compared to no inhibitor) Average", "setting": "inhibitor 2.44141 nM", "value": 96.4, "unit": "%"}, {"measurement": "P-STAT3 (% compared to no inhibitor) Average", "setting": "inhibitor 4.88281 nM", "value": 89.5, "unit": "%"}, {"measurement": "P-STAT3 (% compared to no inhibitor) Average", "setting": "inhibitor 9.76562 nM", "value": 75.7, "unit": "%"}, {"measurement": "P-STAT3 (% compared to no inhibitor) Average", "setting": "inhibitor 19.5312 nM", "value": 80.7, "unit": "%"}, {"measurement": "P-STAT3 (% compared to no inhibitor) Average", "setting": "inhibitor 39.0625 nM", "value": 62.0, "unit": "%"}, {"measurement": "P-STAT3 (% compared to no inhibitor) Average", "setting": "inhibitor 78.125 nM", "value": 39.8, "unit": "%"}, {"measurement": "P-STAT3 (% compared to no inhibitor) Average", "setting": "inhibitor 156.25 nM", "value": 26.0, "unit": "%"}, {"measurement": "P-STAT3 (% compared to no inhibitor) Average", "setting": "inhibitor 312.5 nM", "value": 16.9, "unit": "%"}, {"measurement": "P-STAT3 (% compared to no inhibitor) Average", "setting": "inhibitor 625 nM", "value": 16.7, "unit": "%"}, {"measurement": "P-STAT3 (% compared to no inhibitor) Average", "setting": "inhibitor 2500 nM", "value": 13.8, "unit": "%"}, {"measurement": "P-STAT3 (% compared to no inhibitor) Average", "setting": "inhibitor 5000 nM", "value": 15.3, "unit": "%"}, {"measurement": "P-STAT3 (% compared to no inhibitor) Average", "setting": "inhibitor 10000 nM", "value": 10.3, "unit": "%"}, {"measurement": "P-STAT3 (% compared to no inhibitor) Average", "setting": "inhibitor […]", "value": 12.9, "unit": "%"}, {"measurement": "P-STAT3 (% compared to no inhibitor)", "setting": "inhibitor 0.0190735 nM", "value": "96.2% and 96.8% and 92.2%"}, {"measurement": "P-STAT3 (% compared to no inhibitor)", "setting": "inhibitor 0.038147 nM", "value": "95.4% and 106.7% and 90.5%"}, {"measurement": "P-STAT3 (% compared to no inhibitor)", "setting": "inhibitor 0.0762939 nM", "value": "96.2% and 100.5% and 94.3%"}, {"measurement": "P-STAT3 (% compared to no inhibitor)", "setting": "inhibitor 0.152588 nM", "value": "95.8% and 119.8% and 107.8%"}, {"measurement": "P-STAT3 (% compared to no inhibitor)", "setting": "inhibitor 0.305176 nM", "value": "98.2% and 103.8% and 105.3%"}, {"measurement": "P-STAT3 (% compared to no inhibitor)", "setting": "inhibitor 0.610352 nM", "value": "90.4% and 95.8% and 106.7%"}, {"measurement": "P-STAT3 (% compared to no inhibitor)", "setting": "inhibitor 1.2207 nM", "value": "97.3% and 105.4% and 90.9%"}, {"measurement": "P-STAT3 (% compared to no inhibitor)", "setting": "inhibitor 2.44141 nM", "value": "104.8% and 99.5% and 84.9%"}, {"measurement": "P-STAT3 (% compared to no inhibitor)", "setting": "inhibitor 4.88281 nM", "value": "81.2% and 88.5% and 98.7%"}, {"measurement": "P-STAT3 (% compared to no inhibitor)", "setting": "inhibitor 9.76562 nM", "value": "52.6% and 91.9% and 82.5%"}, {"measurement": "P-STAT3 (% compared to no inhibitor)", "setting": "inhibitor 19.5312 nM", "value": "89.5% and 78.3% and 74.3%"}, {"measurement": "P-STAT3 (% compared to no inhibitor)", "setting": "inhibitor 39.0625 nM", "value": "59.3% and 71.3% and 55.5%"}, {"measurement": "P-STAT3 (% compared to no inhibitor)", "setting": "inhibitor 78.125 nM", "value": "39.9% and 42.8% and 36.6%"}, {"measurement": "P-STAT3 (% compared to no inhibitor)", "setting": "inhibitor 156.25 nM", "value": "30.4% and 24.5% and 23.1%"}, {"measurement": "P-STAT3 (% compared to no inhibitor)", "setting": "inhibitor 312.5 nM", "value": "16.4% and 18.5% and 15.8%"}, {"measurement": "P-STAT3 (% compared to no inhibitor)", "setting": "inhibitor 625 nM", "value": "19.9% and 15.7% and 14.5%"}, {"measurement": "P-STAT3 (% compared to no inhibitor)", "setting": "inhibitor 2500 nM", "value": "12.6% and 13.9% and 14.8%"}, {"measurement": "P-STAT3 (% compared to no inhibitor)", "setting": "inhibitor 5000 nM", "value": "13.4% and 17.3% and 15.2%"}, {"measurement": "P-STAT3 (% compared to no inhibitor)", "setting": "inhibitor 10000 nM", "value": "6.2% and 9.4% and 15.3%"}]}]}
